Measurements: patent US7157083B2, “Compositions and methods for treating retroviral infections” (priority 1998, dated 2007)
Where two headings read alike, the source gives them in different places.

Columns and labels:
PBMCs = assay: Study 4 sensitization: cell viability; format: cell-based, human
Description: Percent virus control (% VC) in the following tables is the mean RT activity (cpm) as a percentage of a virus control. Percent cell control (% CC) is the mean XTT absorbance as a percentage of a cell control.
The macrophage plates were then washed with HBSS multiple times. Fresh mixed pha blast PBMCs (5×10e4/well) were placed on the macrophage cells, allowed to incubate for 72 hours and then harvested and reset in a fresh 96 well plate. The PBMCs were then challenged overnight with the respective virus (IIIB or Rojo) at a standard MOI for that virus. The PBMCs were 5× in plate spin washed with DPBS, incubated 24 hours, at which time 5×10e4 fresh pha blast PBMCs/well were added. The culture was incubated an additional 6 days and then assayed for RT activity.
Where viability corrections were conducted, they were performed by dividing the RT CPM value by the toxicity absorbance in order to compensate for well to well variations noted in the cell titer toxicity noted.

HIV-1 [1] = settings: Assay #7
Description: (§1) Reverse transcriptase (RT) activity was measured in cell-free supernatants. Tritiated thymidine triphosphate (NEN) (TTP) was resuspended in distilled H2O at 5 Cl/mL. Poly rA and oligo dT were prepared as a stock solution which was kept at −20° C. The RT reaction buffer was prepared fresh on a daily basis and consists of 125 μL 1.0 M EGTA, 125 μL d H2O, 110 μL 10% SDS, 50 μL 1.0 M Tris (pH 7.4), 50 μL 1.0 M DTT, and 40μ1.0 M MgCl2. These three solutions were mixed together in a ratio of 2 parts TTP, 1 part poly rA:oligo dT, and 1 part reaction buffer. Ten microliters of this reaction mixture was placed in a round bottom microtiter plate and 15 μL of virus containing supernatant was added and mixed. The plate was incubated at 37° C. in a water bath with a solid support to prevent submersion of the plate and incubated for 60 minutes. Following reaction, the reaction volume was spotted onto pieces of DE81 paper, washed 5 times for 5 minutes each in a 5% sodium phosphate buffer, 2 times for 1 minute each in distilled water, 2 times for 1 minute each in 70% ethanol, and then dried. Opti-Fluor O was added to each sample and incorporated radioactivity was quantitated utilizing a Wallace 1450 Microbetaplus liquid scintillation counter.
(§2) Control groups were not treated with the enzyme.

HIV-1 [2] = settings: Assay #8
Description: as §1, §2

HIV-1 [3] = settings: Assay #5
Description: as §1, §2

Hyaluronidase
cell viability % CC (PBMCs; 0.097656 μg/mL, GP120IIIB Sensitized, Standard): 167.6% | cell viability % CC (PBMCs; 0.097656 μg/mL, IIIB Sensitized, Standard): 138.2% | cell viability % CC (PBMCs; 0.390625 μg/mL, GP120IIIB Sensitized, Turpin): 67.6% | cell viability % CC (PBMCs; 1.5625 μg/mL, GP120IIIB Sensitized, Turpin): 73.4% | cell viability % CC (PBMCs; 6.25 μg/mL, GP120IIIB Sensitized, Turpin): 73.2% | cell viability % CC (PBMCs; 6.25 μg/mL, IIIB Sensitized, Standard): 133.5% | cell viability % CC (PBMCs; 25 μg/mL, Rojo Sensitized, Turpin): 75.0% | cell viability % CC (PBMCs; Table 9, 0.097656 μg/mL, GP120IIIB Sensitized, Standard): 167.6% | cell viability % CC (PBMCs; Table 9, 0.097656 μg/mL, IIIB Sensitized, Standard): 138.2% | cell viability % CC (PBMCs; Table 9, 0.390625 μg/mL, GP120IIIB Sensitized, Turpin): 67.6% | cell viability % CC (PBMCs; Table 9, 1.5625 μg/mL, GP120IIIB Sensitized, Turpin): 73.4% | cell viability % CC (PBMCs; Table 9, 6.25 μg/mL, GP120IIIB Sensitized, Turpin): 73.2% | cell viability % CC (PBMCs; Table 9, 6.25 μg/mL, IIIB Sensitized, Standard): 133.5% | cell viability % CC (PBMCs; Table 9, 25 μg/mL, Rojo Sensitized, Turpin): 75.0% | % Control (HIV-1 [1]; 5 mg/mL): 111.3% | Mean RT (HIV-1 [1]; 5 mg/mL): 18777.7 cpm | % Control (HIV-1 [1]; 10 mg/mL): 122.2% | Mean RT (HIV-1 [1]; 10 mg/mL): 20614.7 cpm | % Control (HIV-1 [1]; 20 mg/mL): 162.7% | Mean RT (HIV-1 [1]; 20 mg/mL): 27462 cpm | % Control, Sum (HIV-1 [1]; Sum over 20, 10, 5 mg/mL): 396.2% | Mean RT, Sum (HIV-1 [1]; Sum over 20, 10, 5 mg/mL): 66854.4 cpm | % Control (HIV-1 [2]; 5 mg/mL): 171.3% | Mean RT (HIV-1 [2]; 5 mg/mL): 30167.3 cpm | % Control (HIV-1 [2]; 10 mg/mL): 63.8% | Mean RT (HIV-1 [2]; 10 mg/mL): 11241 cpm | % Control (HIV-1 [2]; 20 mg/mL): 51.2% | Mean RT (HIV-1 [2]; 20 mg/mL): 9014.3 cpm | % Control, Sum (HIV-1 [2]; Sum over 20, 10, 5 mg/mL): 286.3% | Mean RT, Sum (HIV-1 [2]; Sum over 20, 10, 5 mg/mL): 50422.6 cpm | % Control (HIV-1 [3]; 5 mg/mL): 65.1% | Mean RT (HIV-1 [3]; 5 mg/mL): 12442.7 cpm | % Control (HIV-1 [3]; 10 mg/mL): 58.3% | Mean RT (HIV-1 [3]; 10 mg/mL): 11156.3 cpm | % Control (HIV-1 [3]; 20 mg/mL): 18.5% | % Control, Sum (HIV-1 [3]; Sum over 20, 10, 5 mg/mL): 141.9% | Mean RT, Sum (HIV-1 [3]; Sum over 20, 10, 5 mg/mL): 23599 cpm
